Literature values, collected in US9221758B2, “Methods of synthesizing pharmaceutical salts of a factor Xa inhibitor” (Millennium Pharmaceuticals, Inc., priority 2006, dated 2015).
Read-outs that look alike come from different tables or passages of the source.

What was measured:
[1] = statement in words, information in US2007/0112039
Factor Xa = Factor Xa (Homo sapiens, UniProt P00742); conditions: statement in words, as discussed in U.S. Pat. No. 6,376,515
Factor Xa, sequence (P00742 235-488 limits assumed): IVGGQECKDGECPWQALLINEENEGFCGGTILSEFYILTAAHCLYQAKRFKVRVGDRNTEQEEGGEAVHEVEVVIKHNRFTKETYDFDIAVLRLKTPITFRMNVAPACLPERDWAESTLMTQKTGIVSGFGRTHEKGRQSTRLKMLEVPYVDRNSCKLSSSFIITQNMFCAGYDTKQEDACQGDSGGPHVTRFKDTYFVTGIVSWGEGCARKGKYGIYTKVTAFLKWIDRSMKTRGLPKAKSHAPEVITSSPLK
Factor Xa, sequence (P00742 41-179 partner limits assumed): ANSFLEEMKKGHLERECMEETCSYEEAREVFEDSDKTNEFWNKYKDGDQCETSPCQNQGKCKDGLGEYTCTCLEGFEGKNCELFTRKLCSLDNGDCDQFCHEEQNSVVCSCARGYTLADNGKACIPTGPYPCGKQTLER

| SMILES | thermal and hydrolytic stability [1] | thermal and hydrolytic stability ([1]; listed as maleate salt) | Xa inhibitor potency (Factor Xa) |
| --- | --- | --- | --- |
| COc1ccc(NC(=O)c2ccc(C(=N)N(C)C)cc2)c(C(=O)Nc2ccc(Cl)cn2)c1 | excellent | best thermal and hydrolytic stability observed | – |
| COc1ccc(NC(=O)c2ccc(C(=N)N(C)C)cc2)c(C(=O)Nc2ccc(Cl)cn2)c1 [compound of Formula I] | – | – | potent Xa inhibitor |
